Results on 1 compound are retold here after US20150107993A1, “METHODS AND APPARATUSES FOR […] POLLUTION” (Transfert Plus, s.e.c., priority 2012, published 2015).

Assay [1] relates to Algae culture CC125. In words: Oxygen concentration measurement with the nanofilament electrical detector in a microfluidic channel. Conditions: 1 μM Diuron; CC125 5M cell/ml; -0.6V between working and reference electrode. Format: cell-based, Chlamydomonas reinhardtii. How it is done: According to an experimental evaluation, in order to measure the oxygen level, the electrodes making up the electrical detector are integrated in a glass microfluidic channel, and aligned on an OLED. Algae culture CC125 (5M cell/ml concentration) is injected in the microfluidic channel, the oxygen measure being continuously taken through applying-0.6V between the working electrode and the reference electrode. A Diuron concentration of 1 uM is added to the algae culture before the injection into the chip and the measuring. Standard measures of 1 uM of pollutant were made in triplicate.
Oxygen variation of algae, which is the combination of both production and breathing of algae, can therefore be linked to the pollutant concentration contained in the analyte. In order to measure oxygen production, this detector is also composed of the same organic light source used by the fluorescence detector (OLED.
FIG. 22A refers to oxygen concentration levels measured with the electrical detector for 1 μM of Diuron and with a reference (that has not been exposed to Diuron).

For assay [2], the system named is green algae Chlamydomonas reinhardtii (CC-125). In words: Algal fluorescence inhibition (Vj) measured with the commercial Handy-PEA fluorometer. Conditions: Handy-PEA commercial system, 1×10^6 cell/ml algal culture, same experimental conditions, read-out: concentration of DCMU inhibiting 50% of the algae photochemistry (EC50), evaluated with Vj. Format: cell-based. As for the experimental part:
According to the experimental evaluation using the test apparatus, pollutant detection measurements, a 1×10^6 cell/ml green algal culture was used. Different concentrations of Diuron or DCMU (3(3,4-dichlorophenyl)-1,1-dimethylurea from Aldrich) were prepared in pure ethanol. For each measurement, 30 μL of DCMU was mixed with 2 mL of algal solution. The mixtures were exposed for 30 min under a 100 μmol·m-2·s-1 light intensity, and then dark adapted for 15 min before being injected into the microfluidic chip with a syringe pump to fully fill a microfluidic chamber (around 10 μL). Algal exposure to ethanol concentration used in this study (without DCMU) had no effect on the fluorescence measurements (data not shown). Each measurement was replicated three times. […]
According to the experimental evaluation using the test apparatus, Handy-PEA fluorometer (Hansatech Ltd.) was used as the commercial available equipment to be compared with the microfluidic sensor. […] Fluorescence emission was detected for wavelengths over 700 nm.
According to the experimental evaluation using the test apparatus, from this kinetic of the fluorescence signal, it is possible to extract several parameters representing physiological processes. […] The relative variable fluorescence at 2 ms Vj is very sensitive to Diuron as it is proportional to reaction centers closed at 2 ms. […]

Assay [3] has the same test system. In words: Algal fluorescence inhibition (F25m) measured with the microfluidic OLED/OPD test apparatus. Format: cell-based. Conditions: 1×10^6 cell/ml algal culture. As for the experimental part:
According to an experimental evaluation using the test apparatus, green algae Chlamydomonas reinhardtii (CC-125) was cultivated in 250 mL Erlenmeyer flasks in High Salt Medium (HSM) with the adjusted pH=6.8±0.1. The algae were grown at 25° C. under a light intensity of 100 μmol·m-2·s-1 provided by white-light neon lamps and a 16 h-light/8 h-dark cycle. Cells were maintained continuously in the mid-exponential growth phase (up to 4×10^6 cell/ml) before experiments. To measure the minimum density of algae that can be detected, successive dilutions of a 3×10^6 cell/ml algal culture were prepared in HSM. These solutions were dark adapted for 15 min before fluorescence measurement in order to reoxidize photosystem II reaction centers.
According to the experimental evaluation using the test apparatus, pollutant detection measurements, a 1×10^6 cell/ml green algal culture was used. […] Algal exposure to ethanol concentration used in this study (without DCMU) had no effect on the fluorescence measurements (data not shown). […]
It was noticed that the injection of the pollutant changes fluorescence kinetics. An increase in the fluorescence signal for the first 100 ms, proportional to the pollutant concentration was observed. DCMU induced this fluorescence increase because it blocks the electron transfer in PSII. […]

On to `CN(C)C(=O)Nc1ccc(Cl)c(Cl)c1` [Diuron, 3(3,4-dichlorophenyl)-1,1-dimethylurea], for which the “decrease in total oxygen production from algae” value in assay [1] was “about 26%”. The EC50 in assay [2] came out at 220 nM; in assay [3] (Chlamydomonas reinhardtii, test apparatus, 30 min light exposure, 15 min dark adaptation, read-out: concentration of DCMU inhibiting 50% of the algae photochemistry (EC50), evaluated with F25m), 11 nM. Also, the “lowest concentration tested that gave a significant difference with the control algae for the Finh parameter” value in assay [3] (30 min of light exposure) was 7.5 nM.
